Laboratory results from patent US9572799B2, “Pyrazolopyridine derivatives for use in the treatment of bladder cancer” (SANOFI, priority 2013, dated 2017).
Where a name gives a salt, the structure may show the parent alone.

Legend:
[1] = test system: TCC97-7 bladder cancer cells carrying the Ser249Cys mutation of FGF-R3; experiment: Reduction of intracellular ATP content of TCC97-7 cells in serum-supplemented medium (Cell Titer-Glo); type: cell-based; conditions: 72 h, TCC97-7 cells cultured in the presence of serum, after 3 days, read-out: Inhibition of the amount of intracellular ATP (%)
Description: Evaluation of the Capacity of FGF-R Antagonists to Reduce the ATP Content of TCC97-7 Bladder Cancer Cells Carrying the Ser249Cys Mutation of FGF-R3, Cultured in a Serum-Supplemented Medium
To do this, 3000 cells are seeded in 50 μl of complete medium (Ham-F/12, 1% FCS, 2 mM glutamine, non-essential amino acids, sodium pyruvate, 1% insulin/transferrin/selenium, hydrocortisone). 16 hours later, 50 μl of the various compounds are added at 2 and 20 μM after dilution in complete culture medium in order to obtain final concentrations of 1 and 10 μM. After 3 days, the ATP content of the cells is measured using the Cell Titer-Glo® Luminescent Cell Viability Assay kit (Promega, France) according to the supplier's recommendations. The percentage inhibition of the amount of intracellular ATP is calculated by considering the ATP content of the cells cultured in the absence of antagonist to be 0% inhibition. 100% inhibition would correspond to a well in which the ATP content is zero.
Thus, compounds 1 to 24 are capable of inhibiting the amount of intracellular ATP in TCC97-7 cells by more than 20% at the dose of 1 or 10 μM (Table No. 3).

[2] = test system: bladder cancer tumour cells of TCC97-7 type carrying the Ser249Cys mutation of FGF receptor 3; experiment: Inhibition of serum-induced proliferation of TCC97-7 bladder cancer cells (cell-covered surface area, Incucyte); type: cell-based; conditions: 72 h, TCC97-7 cell line in the presence of serum, after 3 days
Description: Evaluation of the Capacity of the FGF-R Antagonists to Inhibit Serum-Induced Proliferation of Bladder Cancer Tumour Cells of TCC97-7 Type Carrying the Ser249Cys Mutation of FGF Receptor 3
To do this, 2000 cells are seeded in the morning in 50 μl of complete medium (Ham-F/12, 1% FCS, 2 mM glutamine, non-essential amino acids, sodium pyruvate, 1% insulin/transferrin/selenium, hydrocortisone). In the evening, 50 μl of the various compounds are added at 2 or 20 μM after dilution in complete culture medium in order to obtain final concentrations of 1 or 10 μM. After 3 days, cell proliferation is evaluated by measuring the cell-covered surface area of a well of a 96 well plate. This surface area is measured using an Incucyte apparatus (Essen BioScience). The percentage inhibition of the cell proliferation is calculated by considering the surface area occupied by the TCC97-7 cells cultured in the absence of FGF-R antagonists to be 0% inhibition. 100% inhibition would correspond to a well no longer containing cells.
Thus, compounds 1 to 24 are capable of inhibiting TCC97-7 cell proliferation by more than 20% at the dose of 1 or 10 μM. (Table No. 2).

Row | melting point [°C] | Compound | inhibition at 1 µM [1] [%] | inhibition at 10 µM [1] [%] | inhibition at 1 µM [2] [%] | inhibition at 10 µM [2] [%]
1 | 248 | O=C(c1ccc(-c2cc(C(F)F)c3c(-c4ccccc4)n[nH]c3n2)cc1)N1CCCC1 (as salt: hydrochloride) [compound 5, [4-(4-Difluoromethyl-3-phenyl-1H-pyrazolo[3,4-b]pyridin-6-yl)phenyl]pyrrolidin-1-ylmethanone hydrochloride] |  |  |  | 
2 | 282 | N#Cc1cc(-c2cc(C(F)F)c3c(-c4ccccc4)n[nH]c3n2)ccc1N (as salt: hydrochloride) [compound 22, 2-Amino-5-(4-difluoromethyl-3-phenyl-1H-pyrazolo[3,4-b]pyridin-6-yl)benzonitrile hydrochloride] |  |  |  | 
3 |  | Cn1nc(-c2ccccc2)c2c(C(F)(F)F)cc(-c3cccc(C(N)=O)c3)nc21 [compound 1, 3-(1-methyl-3-phenyl-4-trifluoromethyl-1H-pyrazolo[3,4-b]pyridin-6-yl)benzamide] | 10.9 | 41.1 | 8 | 91.6
4 |  | CNC(=O)c1cc(-c2cc(C(F)(F)F)c3c(-c4ccccc4)nn(C)c3n2)ccc1F [compound 2, 2-Fluoro-N-methyl-5-(1-methyl-3-phenyl-4-trifluoromethyl-1H-pyrazolo[3,4-b]pyridin-6-yl)benzamide] | 17.9 | 35.9 | 4 | 53.2
5 | 95 | CN(C)c1cccc(-c2cc(C(F)(F)F)c3c(-c4ccccc4)nn(C)c3n2)c1 [compound 3, Dimethyl-[3-(1-methyl-3-phenyl-4-trifluoromethyl-1H-pyrazolo[3,4-b]pyridin-6-yl)phenyl]amine] | 21.3 | 47.7 | -32.3 | 40
6 |  | CN(C)C(=O)c1cccc(-c2cc(C(F)(F)F)c3c(-c4ccccc4)nn(C)c3n2)c1 [compound 4, N,N-Dimethyl-3-(1-methyl-3-phenyl-4-trifluoromethyl-1H-pyrazolo[3,4-b]pyridin-6-yl)benzamide] | 23.7 | 49.6 | 5 | 64.4
7 |  | O=C(c1ccc(-c2cc(C(F)F)c3c(-c4ccccc4)n[nH]c3n2)cc1)N1CCCC1 [compound 5, [4-(4-Difluoromethyl-3-phenyl-1H-pyrazolo[3,4-b]pyridin-6-yl)phenyl]pyrrolidin-1-ylmethanone hydrochloride] | 37.1 | 40.8 | 45.7 | 19.5
8 |  | O=C(c1cccc(-c2cc(C(F)F)c3c(-c4ccccc4)n[nH]c3n2)c1)N1CCCC1 [compound 6, [3-(4-Difluoromethyl-3-phenyl-1H-pyrazolo[3,4-b]pyridin-6-yl)phenyl]pyrrolidin-1-ylmethanone hydrochloride] | 26.9 | 90.5 | 16.2 | 83.9
9 |  | FC(F)c1cc(-c2cccc(N3CCCCC3)c2)nc2[nH]nc(-c3ccccc3)c12 [compound 7, 4-Difluoromethyl-3-phenyl-6-(3-piperidin-1-ylphenyl)-1H-pyrazolo[3,4-b]pyridine hydrochloride] | 20.4 | 78 | -50.3 | 52.2
10 |  | CN(C)CCn1nc(-c2ccccc2)c2c(C(F)(F)F)cc(-c3ccc(N)c(C#N)c3)nc21 [compound 8, 2-Amino-5-[1-(2-dimethylamino-ethyl)-3-phenyl-4-trifluoromethyl-1H-pyrazolo[3,4-b]pyridin-6-yl]benzonitrile] | 27.7 | 97.8 | 10.8 | 95.2
11 | 250 | COc1ncc(-c2cc(C(F)(F)F)c3c(-c4ccccc4)nn(C)c3n2)cc1C#N [compound 9, 2-Methoxy-5-(1-methyl-3-phenyl-4-trifluoromethyl-1H-pyrazolo[3,4-b]pyridin-6-yl)nicotinonitrile] | 12.3 | 69.3 | 27.6 | 79.7
12 |  | N#Cc1cc(-c2cc(C(F)(F)F)c3c(-c4ccccc4)nn(CCN4CCCCC4)c3n2)ccc1N [compound 10, 2-Amino-5-[3-phenyl-1-(2-piperidin-1-ylethyl)-4-trifluoromethyl-1H-pyrazolo[3,4-b]pyridin-6-yl]benzonitrile] | 11 | 94.4 | 22.8 | 85.9
13 | 296 | N#Cc1cc(-c2cc(C(F)F)c3c(-c4cccnc4)n[nH]c3n2)ccc1N [compound 11, 2-Amino-5-(4-difluoromethyl-3-pyridin-3-yl-1H-pyrazolo[3,4-b]pyridin-6-yl)benzonitrile] | 21.5 | 25.5 | 50.4 | 19.2
14 |  | CS(=O)(=O)Nc1cccc(-c2cc(C(F)(F)F)c3c(-c4ccccc4)n[nH]c3n2)c1 [compound 13, N-[3-(3-Phenyl-4-trifluoromethyl-1H-pyrazolo[3,4-b]pyridin-6-yl)phenyl]methanesulphonamide hydrochloride] | 56 | 63 | 0 | 57
15 |  | CN(C)CCn1nc(-c2ccccc2)c2c(C(F)F)cc(-c3ccc(N)c(C#N)c3)nc21 [compound 14, 2-Amino-5-[4-difluoromethyl-1-(2-dimethylaminoethyl)-3-phenyl-1H-pyrazolo[3,4-b]pyridin-6-yl]benzonitrile] | 32 | 77 |  | 
16 |  | CNC(=O)c1cccc(-c2cc(C(F)(F)F)c3c(-c4ccccc4)n[nH]c3n2)c1 [compound 17, N-Methyl-3-(3-phenyl-4-trifluoromethyl-1H-pyrazolo[3,4-b]pyridin-6-yl)benzamide hydrochloride] | 13 | 69 |  | 
17 |  | CN(C)c1ccc(-c2cc(C(F)(F)F)c3c(-c4ccccc4)n[nH]c3n2)cc1 [compound 19, Dimethyl-[4-(3-phenyl-4-trifluoromethyl-1H-pyrazolo[3,4-b]pyridin-6-yl)phenyl]amine] | 30 | 63 |  | 
18 |  | N#Cc1cc(-c2cc(C(F)(F)F)c3c(-c4ccccc4)n[nH]c3n2)ccc1F [compound 20, 2-Fluoro-5-(3-phenyl-4-trifluoromethyl-1H-pyrazolo[3,4-b]pyridin-6-yl)benzonitrile] | 11 | 26 |  | 
19 |  | Cn1nc(-c2ccccc2)c2c(C(F)(F)F)cc(-c3cccc(NS(C)(=O)=O)c3)nc21 [compound 21, N-[3-(1-Methyl-3-phenyl-4-trifluoromethyl-1H-pyrazolo[3,4-b]pyridin-6-yl)phenyl]methanesulphonamide] | -1 | 25 | -3 | 61
20 |  | N#Cc1cc(-c2cc(C(F)F)c3c(-c4ccccc4)n[nH]c3n2)ccc1N [compound 22, 2-Amino-5-(4-difluoromethyl-3-phenyl-1H-pyrazolo[3,4-b]pyridin-6-yl)benzonitrile hydrochloride] | 27 | 53 |  | 
21 |  | Cn1nc(-c2ccccc2)c2c(C(F)(F)F)cc(-c3ccc(C(=O)O)cc3)nc21 [compound 23, 4-(1-Methyl-3-phenyl-4-trifluoromethyl-1H-pyrazolo[3,4-b]pyridin-6-yl)benzoic acid] | 17 | 40 | 8 | 33
22 |  | FC(F)(F)c1cc(-c2ccc(N3CCOCC3)cc2)nc2[nH]nc(-c3ccccc3)c12 [compound 24, 6-(4-Morpholin-4-ylphenyl)-3-phenyl-4-trifluoromethyl-1H-pyrazolo[3,4-b]pyridine hydrochloride] | 6 | 27 |  | 

Row | Compound | melting point [°C] | inhibition at 1 µM [1] [%] | inhibition at 10 µM [1] [%] | inhibition at 1 µM [2] [%] | inhibition at 10 µM [2] [%]
23 | Nc1ccc(-c2cc(C(F)(F)F)c3c(-c4ccccc4)n[nH]c3n2)cc1 [compound 16, 4-(3-Phenyl-4-trifluoromethyl-1H-pyrazolo[3,4-b]pyridin-6-yl)phenylamine] | 237 | 24 | 38 |  | 
